According to patent US20240277749A1, “NEW FORMULATIONS COMPRISING AZACITIDINE” (NANEXA AB, priority 2021, published 2024):

Legend:
[1] = standard of care over seven consecutive days by injection or infusions, cited from earlier work
clinical = conditions: human, plasma, sc, 100 mg/m2

- AUC(0-inf) (clinical): 1120 ng·h/mL
- Cmax (clinical): 562 ng/mL
- Tmax (clinical): 0.433 h
- half-life (clinical): 6.82 h
SMILES: Nc1ncn([C@@H]2O[C@H](CO)[C@@H](O)[C@H]2O)c(=O)n1 [azacitidine, 4-amino-1-®-D-ribofuranosyl-s-triazin-2(1H)-one]
- average AUC∞ ([1]; 525 mg/m^2 of BSA): 960 ± 458 ng·h/mL
- average Cmax [1]: 750 ± 403 ng/mL
